Assay results: patent US6800641B2, “Antipsychotic aminomethyl derivatives of 7,8-dihydro-3H-6,9-dioxa-2,3-diaza-cyclopenta[a]naphthalene” (Wyeth, priority 2001, dated 2004)
Counter-ions that a name gives are not always drawn.

Test system: not given
Test: not given
c1ccc(CNC[C@H]2COc3ccc4[nH]ncc4c3O2)cc1 (as salt: fumarate) (hydrate or solvate) [Example 1] gave a melting point of 194 to 195.7 °C.
For c1ccc(CCCCNC[C@H]2COc3ccc4[nH]ncc4c3O2)cc1 (as salt: hydrochloride) (hydrate or solvate) [Example 2], the melting point was 104 °C.
With c1cc2[nH]ncc2c2c1OCC(CNCC13CC4CC(CC(C4)C1)C3)O2 (centres unmarked) (as salt: hydrochloride) [Example 3, Adamantan-1-ylmethyl-(-7,8-dihydro-3H-6,9-dioxa-2,3-diaza-cyclopenta[a]naphthalen-8-ylmethyl)-amine] the melting point was > 300 °C.
c1ccc2c(c1)CCN(CC1COc3ccc4[nH]ncc4c3O1)C2 (centres unmarked) (as salt: hydrochloride) [Example 5, 8-(3,4-Dihydro-1H-isoquinolin-2-ylmethyl)-7,8-dihydro-3H-6,9-dioxa-2,3-diaza-cyclopenta[a]naphthalene] gave a melting point of 170 to 172 °C.
For C1=C(c2c[nH]c3ccccc23)CCN(CC2COc3ccc4[nH]ncc4c3O2)C1 (centres unmarked) (as salt: hydrochloride) [Example 6, 8-[4-(1H-indol-3-yl)-3,6-dihydro-2H-pyridin-1-ylmethyl]-7,8-dihydro-3H-6,9-dioxa-2,3-diaza-cyclopenta[a]naphthalene], the melting point was 190 °C.
With Fc1ccc2[nH]cc(CC3CCN(CC4COc5ccc6[nH]ncc6c5O4)CC3)c2c1 (centres unmarked) (as salt: hydrochloride) [Example 7, 8-[4-(5-Fluoro-1H-indol-3-ylmethyl)-piperidin-1-ylmethyl]-7,8-dihydro-3H-6,9-dioxa-2,3-diaza-cyclopenta[a]naphthalene] the melting point was 165 °C.
In the case of c1ccc2c(CCCNCC3COc4ccc5[nH]ncc5c4O3)c[nH]c2c1 (centres unmarked) (as salt: oxalate) [Example 4, (7,8-Dihydro-3H-6,9-dioxa-2,3-diaza-cyclopenta[a]naphthalen-8-ylmethyl)-[3-(1H-indol-3-yl)-propyl]-amine], the melting point is reported as 138 to 142 °C.

Molecular target: T1, dopamine D2 receptor (Rattus norvegicus, UniProt P61169)
T1 construct: from tissue; host or cells: rat striatal brain tissue homogenate
T1 sequence (P61169 whole entry): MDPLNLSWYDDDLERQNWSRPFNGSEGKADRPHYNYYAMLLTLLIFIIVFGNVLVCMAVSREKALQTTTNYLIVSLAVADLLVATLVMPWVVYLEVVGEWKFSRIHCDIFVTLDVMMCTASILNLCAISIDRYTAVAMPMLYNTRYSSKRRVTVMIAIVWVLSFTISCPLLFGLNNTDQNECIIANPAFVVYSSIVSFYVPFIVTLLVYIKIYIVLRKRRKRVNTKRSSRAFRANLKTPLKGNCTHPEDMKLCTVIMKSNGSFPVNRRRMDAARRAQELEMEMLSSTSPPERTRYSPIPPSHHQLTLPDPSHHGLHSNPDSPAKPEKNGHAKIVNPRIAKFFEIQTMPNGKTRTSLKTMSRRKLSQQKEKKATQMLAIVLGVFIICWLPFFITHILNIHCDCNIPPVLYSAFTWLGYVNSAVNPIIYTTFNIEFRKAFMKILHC
Test: Dopamine D2 receptor affinity, 3H-quinpirole binding in homogenized rat striatal brain tissue
Description: Affinity for the dopamine D2 receptor was established by a modification of the standard experimental test procedure of Seemen and Schaus, European Journal of Pharmacology 203: 105-109, 1991, wherein homogenized rat striatal brain tissue is incubated with ^3H-quinpirole and various concentrations of test compound, filtered and washed and counted in a Betaplate scintillation counter.
For c1ccc(CNC[C@H]2COc3ccc4[nH]ncc4c3O2)cc1 [Example 1], the IC50 was 0.45 nM.
Compound c1ccc(CCCCNC[C@H]2COc3ccc4[nH]ncc4c3O2)cc1 [Example 2] has an IC50 of 0.29 nM.
In the case of c1cc2[nH]ncc2c2c1OCC(CNCC13CC4CC(CC(C4)C1)C3)O2 (centres unmarked) [Example 3, Adamantan-1-ylmethyl-(-7,8-dihydro-3H-6,9-dioxa-2,3-diaza-cyclopenta[a]naphthalen-8-ylmethyl)-amine], the IC50 is reported as 0.1 nM.
In the case of c1ccc2c(CCCNCC3COc4ccc5[nH]ncc5c4O3)c[nH]c2c1 (centres unmarked) [Example 4, (7,8-Dihydro-3H-6,9-dioxa-2,3-diaza-cyclopenta[a]naphthalen-8-ylmethyl)-[3-(1H-indol-3-yl)-propyl]-amine], the IC50 is reported as 0.17 nM.
Compound c1ccc2c(c1)CCN(CC1COc3ccc4[nH]ncc4c3O1)C2 (centres unmarked) [Example 5, 8-(3,4-Dihydro-1H-isoquinolin-2-ylmethyl)-7,8-dihydro-3H-6,9-dioxa-2,3-diaza-cyclopenta[a]naphthalene] has an IC50 of 1.1 nM.
C1=C(c2c[nH]c3ccccc23)CCN(CC2COc3ccc4[nH]ncc4c3O2)C1 (centres unmarked) [Example 6, 8-[4-(1H-indol-3-yl)-3,6-dihydro-2H-pyridin-1-ylmethyl]-7,8-dihydro-3H-6,9-dioxa-2,3-diaza-cyclopenta[a]naphthalene] showed an IC50 of 4.5 nM.
In the case of Fc1ccc2[nH]cc(CC3CCN(CC4COc5ccc6[nH]ncc6c5O4)CC3)c2c1 (centres unmarked) [Example 7, 8-[4-(5-Fluoro-1H-indol-3-ylmethyl)-piperidin-1-ylmethyl]-7,8-dihydro-3H-6,9-dioxa-2,3-diaza-cyclopenta[a]naphthalene], the IC50 is reported as 3.4 nM.
